From ChEMBL document CHEMBL1201862, “PubChem BioAssay data set” (2004)
Active and inactive are the calls of the source.

Assays:
INS1 = experiment: beta cell apoptosis inhibitors, cytokine rescue, dose response, luminescence, retest (AID 449756); assay type: functional, cell-based; settings: Rattus norvegicus;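 further: cell death triggered by IL-1 beta plus TNF-alpha plus IFN-gamma mixture; protective hits raise ATP signal compared with cytokine alone wells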
[1] = cytotoxicity toward NIH3T3 fibroblasts, dose response, counter-screen, cell-based, ATP luminescence, mouse fibroblasts (AID 2010); assay type: functional;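 further: cells exposed to compound for about 90 hours before reading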
[2] = molecular target: T1, Sentrin-specific protease 7 (Homo sapiens, UniProt Q9BQF6); assay type: functional;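 further: Luminescence-based dose-response confirmation of ultra-high-throughput screening hits, measuring inhibition of SENP7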
T1 sequence (Q9BQF6 whole entry): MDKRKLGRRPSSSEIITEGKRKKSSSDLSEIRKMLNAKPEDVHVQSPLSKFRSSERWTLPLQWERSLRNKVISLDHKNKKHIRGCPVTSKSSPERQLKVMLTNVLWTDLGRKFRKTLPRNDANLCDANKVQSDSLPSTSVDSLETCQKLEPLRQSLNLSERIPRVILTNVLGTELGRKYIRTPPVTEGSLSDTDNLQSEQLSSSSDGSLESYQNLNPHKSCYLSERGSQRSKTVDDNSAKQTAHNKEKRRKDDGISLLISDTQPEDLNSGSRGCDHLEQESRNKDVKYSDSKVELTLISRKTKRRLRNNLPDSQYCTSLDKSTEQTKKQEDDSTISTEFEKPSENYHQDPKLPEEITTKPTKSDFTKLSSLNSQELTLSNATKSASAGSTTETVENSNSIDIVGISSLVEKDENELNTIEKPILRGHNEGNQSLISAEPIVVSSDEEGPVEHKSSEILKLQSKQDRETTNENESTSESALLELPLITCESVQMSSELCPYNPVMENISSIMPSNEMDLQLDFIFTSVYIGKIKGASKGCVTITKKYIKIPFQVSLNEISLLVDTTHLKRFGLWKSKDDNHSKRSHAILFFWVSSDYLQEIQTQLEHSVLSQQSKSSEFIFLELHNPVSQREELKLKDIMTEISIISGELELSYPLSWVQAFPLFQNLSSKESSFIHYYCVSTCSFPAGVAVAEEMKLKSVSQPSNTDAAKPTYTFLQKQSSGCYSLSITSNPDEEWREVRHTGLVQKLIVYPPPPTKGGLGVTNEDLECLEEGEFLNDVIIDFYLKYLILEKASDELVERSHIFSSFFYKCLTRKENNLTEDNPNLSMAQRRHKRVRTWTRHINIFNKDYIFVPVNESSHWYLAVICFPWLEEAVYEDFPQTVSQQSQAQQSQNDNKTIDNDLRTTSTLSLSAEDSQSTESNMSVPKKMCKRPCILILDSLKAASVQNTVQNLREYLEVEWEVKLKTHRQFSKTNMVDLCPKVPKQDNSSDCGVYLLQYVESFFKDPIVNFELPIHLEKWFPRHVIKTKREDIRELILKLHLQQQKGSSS

[3] = molecular target: T2, Sentrin-specific protease 6 (Homo sapiens, UniProt Q9GZR1); assay type: functional;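 further: Luminescence-based dose-response confirmatory assay of SENP6 inhibition, following up an ultra-high-throughput screen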
T2 sequence (Q9GZR1 whole entry): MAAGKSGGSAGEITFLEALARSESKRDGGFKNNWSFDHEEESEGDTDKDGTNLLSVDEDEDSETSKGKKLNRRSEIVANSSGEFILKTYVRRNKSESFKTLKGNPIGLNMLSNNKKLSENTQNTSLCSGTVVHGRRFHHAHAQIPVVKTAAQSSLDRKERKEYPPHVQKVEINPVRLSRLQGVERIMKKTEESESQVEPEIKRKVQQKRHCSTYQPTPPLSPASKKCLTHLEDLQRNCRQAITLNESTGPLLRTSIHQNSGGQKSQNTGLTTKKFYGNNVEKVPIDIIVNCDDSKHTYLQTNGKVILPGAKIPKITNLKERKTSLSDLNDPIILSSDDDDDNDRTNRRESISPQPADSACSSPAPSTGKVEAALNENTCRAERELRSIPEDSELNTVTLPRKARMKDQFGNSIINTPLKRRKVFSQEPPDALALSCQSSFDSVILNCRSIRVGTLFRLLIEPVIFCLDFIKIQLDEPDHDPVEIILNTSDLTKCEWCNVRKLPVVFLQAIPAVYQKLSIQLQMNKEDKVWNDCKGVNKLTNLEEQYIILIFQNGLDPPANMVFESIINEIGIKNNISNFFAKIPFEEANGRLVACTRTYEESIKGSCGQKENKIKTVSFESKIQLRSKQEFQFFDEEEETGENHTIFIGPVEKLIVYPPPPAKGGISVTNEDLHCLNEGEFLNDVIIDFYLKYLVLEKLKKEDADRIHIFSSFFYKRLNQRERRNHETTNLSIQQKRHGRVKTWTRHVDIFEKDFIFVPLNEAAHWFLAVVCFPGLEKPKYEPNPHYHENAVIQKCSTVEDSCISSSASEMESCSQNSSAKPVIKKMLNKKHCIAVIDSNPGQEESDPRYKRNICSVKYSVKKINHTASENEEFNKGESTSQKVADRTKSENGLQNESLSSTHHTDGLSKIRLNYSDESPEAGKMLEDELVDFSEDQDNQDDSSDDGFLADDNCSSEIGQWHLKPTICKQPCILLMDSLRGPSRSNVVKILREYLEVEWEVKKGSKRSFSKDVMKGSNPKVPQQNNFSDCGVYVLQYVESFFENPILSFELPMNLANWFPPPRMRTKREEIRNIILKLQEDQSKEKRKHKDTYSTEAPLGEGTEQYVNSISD

[4] = molecular target: T3, Sentrin-specific protease 8 (Homo sapiens, UniProt Q96LD8); assay type: functional;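 further: luminescence read-out of SENP8 inhibition, dose-response confirmation following an ultra-high-throughput screen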
T3 sequence (Q96LD8 whole entry): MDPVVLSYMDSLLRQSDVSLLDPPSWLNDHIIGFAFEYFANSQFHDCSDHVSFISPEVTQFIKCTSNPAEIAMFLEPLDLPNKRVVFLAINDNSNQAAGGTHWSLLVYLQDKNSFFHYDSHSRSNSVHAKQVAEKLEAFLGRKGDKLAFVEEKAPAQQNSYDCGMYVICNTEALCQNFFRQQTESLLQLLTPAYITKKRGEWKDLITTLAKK

Nonstructural protein 1 = Nonstructural protein 1 (Influenza A virus, UniProt Q194T2); assay type: functional, Influenza A virus (A/California/07/2009(H1N1))
Caspase-3 = molecular target: T4, Caspase-3 (Homo sapiens, UniProt P42574); assay type: functional;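 further: Dose-response selectivity test against caspase-3 for candidate inhibitors of sentrin-specific proteases (SENPs)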
T4 sequence (P42574 whole entry): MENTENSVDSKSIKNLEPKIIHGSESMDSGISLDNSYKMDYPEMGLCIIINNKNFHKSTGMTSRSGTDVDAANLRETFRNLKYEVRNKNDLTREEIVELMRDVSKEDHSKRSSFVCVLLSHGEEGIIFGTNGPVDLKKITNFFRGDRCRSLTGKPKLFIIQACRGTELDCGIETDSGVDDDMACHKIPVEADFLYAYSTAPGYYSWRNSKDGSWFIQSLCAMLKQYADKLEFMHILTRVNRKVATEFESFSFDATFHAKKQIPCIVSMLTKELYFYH

[5] = molecular target: Tyrosyl-DNA phosphodiesterase 2 (Homo sapiens, UniProt O95551); experiment: human TDP2 enzyme inhibitors, dose response, biochemical, epi absorbance, IC50 (AID 743297)
Streptococcus = experiment: Group A Streptococcus viability loss, dose response, counter-screen for streptokinase expression inhibitor project, luminescence, BacTiterGlo (AID 1915); assay type: functional, organism-based;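 further: potency for reduction of bacterial viability or growth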

Chain of Tyrosyl-DNA phosphodiesterase 2 (O95551 whole entry): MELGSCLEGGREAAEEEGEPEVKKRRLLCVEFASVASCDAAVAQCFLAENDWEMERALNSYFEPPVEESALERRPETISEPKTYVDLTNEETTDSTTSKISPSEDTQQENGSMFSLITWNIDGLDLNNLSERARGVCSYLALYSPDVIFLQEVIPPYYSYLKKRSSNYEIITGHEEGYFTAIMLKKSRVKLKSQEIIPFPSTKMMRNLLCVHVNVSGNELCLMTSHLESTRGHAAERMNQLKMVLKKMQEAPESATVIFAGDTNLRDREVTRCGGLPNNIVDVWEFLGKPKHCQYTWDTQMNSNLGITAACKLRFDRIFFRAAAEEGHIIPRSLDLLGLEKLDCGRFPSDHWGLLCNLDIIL
Chain of Nonstructural protein 1 (Q194T2 whole entry): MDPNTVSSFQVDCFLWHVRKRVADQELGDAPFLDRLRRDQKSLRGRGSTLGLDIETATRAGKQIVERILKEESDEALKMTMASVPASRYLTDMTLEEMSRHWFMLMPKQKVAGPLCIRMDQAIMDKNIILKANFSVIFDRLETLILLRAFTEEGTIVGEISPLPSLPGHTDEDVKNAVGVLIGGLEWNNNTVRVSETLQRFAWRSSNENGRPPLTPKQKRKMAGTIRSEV

Question: Which AC50 (INS1) does the source give for `CCCCCCCCCCOC(=O)Cn1c(COc2cccc(OC)c2)[n+](C)c2ccccc21` here?
Answer: Its AC50 is 2.94 µM (active).

Question: And the EC50 [1]?
Answer: The EC50 was > 60 µM (not active).

Question: For `COc1cc(OC)c(NC2=CC(=O)C(=O)c3ccccc32)cc1Cl`, which IC50 [2] is on record?
Answer: The IC50 was 4.56 µM (active).

Question: And the IC50 [3]?
Answer: Its IC50 is 2.25 µM (active).

Question: And the IC50 [4]?
Answer: The IC50 was 3.62 µM (active).

Question: What about the IC50 (Nonstructural protein 1) of the same compound?
Answer: Its IC50 is > 100 µM (active).

Question: And the AC50 (INS1)?
Answer: The AC50 was 3.57 µM (active).

Question: What about the IC50 (Caspase-3) of the same compound?
Answer: The IC50 was 12.2 µM (active).

Question: For `CCc1ccc(S(=O)(=O)/N=C2\C=C(Nc3cccc(C(=O)O)c3)C(=O)c3ccccc32)cc1`, which IC50 [5] is on record?
Answer: The IC50 was 2.2 µM (active).

Question: And the EC50 (Streptococcus)?
Answer: Its EC50 is 1.9 µM (active).

Question: What does the source list for `COc1cc2c(cc1OC)-c1c(OC)c(OC)cc3c1C(C2)N(C)CC3` (stereo not given)?
Answer: IC50 [2]: 4.63 µM (active); IC50 [3]: 1.86 µM (active); IC50 [4]: 5.47 µM (active); IC50 [5]: 4.6 µM (active); IC50 (Caspase-3): 0.907 µM (active)
